The values below come from US7663000B2, “Quinoneimines of malonic acid diamides” (A-Viral ASA, priority 2003, dated 2010).

The nature of the data set: Stability in aqueous solution, analysed by 1H NMR. In kind it is physicochemical. From the text: The product of Example 2 (PHBPQ, N-phenyl-2-hydroxy-2 butyl 1,3-propanal quinoneimine) was examined for stability in aqueous solution, followed by analysis by ^1H NMR spectroscopy.

In the case of “N-phenyl-2-hydroxy-2 butyl 1,3-propanal quinoneimine [PHBPQ]”, under “pH 7.4”, the “stability compared with 4-OH-OPB” value is “more stable at pH 7.4 than 4-OH-OPB”. In addition, under “when the solution was acidified”, the “re-conversion into 4-OH-OPB” value is “not re-converted into 4-OH-OPB”.
